Experimental data taken from the supplement of paper PMC10307832.

Tests used:
Assay in all cases: relative viability (nuclei count vs DMSO), 5 days (fraction); higher = more cells survive
PC-14 = system: PC-14
In short: (§1)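 For relative viability, nuclei counts in treated wells were divided by those in vehicle wells. Lung cancer cell lines had been pin-tool dosed in 1536-well plates the day after seeding and cultured for 5 days, then fixed and stained in one step (final 0.05% Triton X-100, 1% formaldehyde, 1 ug/ml Hoechst) and imaged at 4×. Doses were one drug alone or a fixed anchor-drug dose plus five library-drug doses (not always all listed) in √10 steps, and values are duplicate-plate medians.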

NCI-H1792 = system: NCI-H1792
In short: as §1

NCI-H650 = system: NCI-H650
In short: as §1

LCLC-103H = system: LCLC-103H
In short: as §1

NCI-H460 = system: NCI-H460
In short: as §1

NCI-H596 = system: NCI-H596
In short: as §1

NCI-H1651 = system: NCI-H1651
In short: as §1

LXF-289 = system: LXF-289
In short: as §1

NCI-H1355 = system: NCI-H1355
In short: as §1

SK-MES-1 = system: SK-MES-1
In short: as §1

RERF-LC-KJ = system: RERF-LC-KJ
In short: as §1

NCI-H1755 = system: NCI-H1755
In short: as §1

NCI-H441 = system: NCI-H441
In short: as §1

NCI-H727 = system: NCI-H727
In short: as §1

NCI-H3122 = system: NCI-H3122
In short: as §1

NCI-H1915 = system: NCI-H1915
In short: as §1

NCI-H661 = system: NCI-H661
In short: as §1

NCI-H520 = system: NCI-H520
In short: as §1

NCI-H1563 = system: NCI-H1563
In short: as §1

NCI-H322M = system: NCI-H322M
In short: as §1

NCI-H2347 = system: NCI-H2347
In short: as §1

C=C1C(=O)O[C@@H](CCCCCCCC)[C@@H]1C(=O)O [C-75] + C[C@]1(O)C[C@@H](c2nc(-c3ccc4ccc(-c5ccccc5)nc4c3)c3c(N)nccn32)C1 [Linsitinib] (partner 1 µM)
relative viability (PC-14; first compound 0.08 µM): 0.956 | relative viability (PC-14; first compound 0.253 µM): 0.818 | relative viability (PC-14; first compound 0.8 µM): 1.03 | relative viability (PC-14; first compound 2.53 µM): 0.778 | relative viability (PC-14; first compound 8 µM): 0.939 | relative viability (NCI-H1792; first compound 0.08 µM): 0.527 | relative viability (NCI-H1792; first compound 0.253 µM): 0.486 | relative viability (NCI-H1792; first compound 0.8 µM): 0.471 | relative viability (NCI-H1792; first compound 2.53 µM): 0.377 | relative viability (NCI-H1792; first compound 8 µM): 0.544 | relative viability (NCI-H650; first compound 0.08 µM): 0.922 | relative viability (NCI-H650; first compound 0.253 µM): 0.801 | relative viability (NCI-H650; first compound 0.8 µM): 0.608 | relative viability (NCI-H650; first compound 2.53 µM): 0.718 | relative viability (NCI-H650; first compound 8 µM): 0.766 | relative viability (LCLC-103H; first compound 0.08 µM): 0.999 | relative viability (LCLC-103H; first compound 0.253 µM): 1.29 | relative viability (LCLC-103H; first compound 0.8 µM): 1.08 | relative viability (LCLC-103H; first compound 2.53 µM): 0.862 | relative viability (LCLC-103H; first compound 8 µM): 1.09 | relative viability (NCI-H460; first compound 0.08 µM): 0.718 | relative viability (NCI-H460; first compound 0.253 µM): 0.823 | relative viability (NCI-H460; first compound 0.8 µM): 0.72 | relative viability (NCI-H460; first compound 8 µM): 0.582 | relative viability (NCI-H596; first compound 0.08 µM): 1.01 | relative viability (NCI-H596; first compound 0.253 µM): 1.09 | relative viability (NCI-H596; first compound 0.8 µM): 1.01 | relative viability (NCI-H596; first compound 2.53 µM): 0.911 | relative viability (NCI-H596; first compound 8 µM): 1.03 | relative viability (NCI-H1651; first compound 0.08 µM): 1.06 | relative viability (NCI-H1651; first compound 0.253 µM): 1.07 | relative viability (NCI-H1651; first compound 0.8 µM): 1.08 | relative viability (NCI-H1651; first compound 2.53 µM): 0.975 | relative viability (NCI-H1651; first compound 8 µM): 0.964 | relative viability (LXF-289; first compound 0.08 µM): 0.925 | relative viability (LXF-289; first compound 0.253 µM): 0.979 | relative viability (LXF-289; first compound 0.8 µM): 0.953 | relative viability (LXF-289; first compound 2.53 µM): 0.94 | relative viability (LXF-289; first compound 8 µM): 0.966 | relative viability (NCI-H1355; first compound 0.08 µM): 0.849 | relative viability (NCI-H1355; first compound 0.253 µM): 0.803 | relative viability (NCI-H1355; first compound 0.8 µM): 0.806 | relative viability (NCI-H1355; first compound 2.53 µM): 0.805 | relative viability (NCI-H1355; first compound 8 µM): 0.825 | relative viability (SK-MES-1; first compound 0.08 µM): 1.1 | relative viability (SK-MES-1; first compound 0.253 µM): 0.935 | relative viability (SK-MES-1; first compound 0.8 µM): 1.02 | relative viability (SK-MES-1; first compound 8 µM): 1.05 | relative viability (RERF-LC-KJ; first compound 0.08 µM): 0.912 | relative viability (RERF-LC-KJ; first compound 0.253 µM): 0.994 | relative viability (RERF-LC-KJ; first compound 0.8 µM): 0.827 | relative viability (RERF-LC-KJ; first compound 2.53 µM): 0.739 | relative viability (RERF-LC-KJ; first compound 8 µM): 0.971 | relative viability (NCI-H1755; first compound 0.08 µM): 0.946 | relative viability (NCI-H1755; first compound 0.253 µM): 0.887 | relative viability (NCI-H1755; first compound 0.8 µM): 0.98 | relative viability (NCI-H1755; first compound 2.53 µM): 0.775 | relative viability (NCI-H1755; first compound 8 µM): 1.01 | relative viability (NCI-H441; first compound 0.08 µM): 0.476 | relative viability (NCI-H441; first compound 0.253 µM): 0.592 | relative viability (NCI-H441; first compound 0.8 µM): 0.373 | relative viability (NCI-H441; first compound 2.53 µM): 0.48 | relative viability (NCI-H441; first compound 8 µM): 0.442 | relative viability (NCI-H727; first compound 0.08 µM): 0.277 | relative viability (NCI-H727; first compound 0.253 µM): 0.614 | relative viability (NCI-H727; first compound 0.8 µM): 0.263 | relative viability (NCI-H727; first compound 2.53 µM): 0.183 | relative viability (NCI-H727; first compound 8 µM): 0.283 | relative viability (NCI-H3122; first compound 0.08 µM): 1.02 | relative viability (NCI-H3122; first compound 0.253 µM): 1.06 | relative viability (NCI-H3122; first compound 0.8 µM): 1.04 | relative viability (NCI-H3122; first compound 8 µM): 1.1 | relative viability (NCI-H1915; first compound 0.08 µM): 1.2 | relative viability (NCI-H1915; first compound 0.253 µM): 1.17 | relative viability (NCI-H1915; first compound 0.8 µM): 0.993 | relative viability (NCI-H1915; first compound 2.53 µM): 1.05 | relative viability (NCI-H1915; first compound 8 µM): 1.07 | relative viability (NCI-H661; first compound 0.08 µM): 0.504 | relative viability (NCI-H661; first compound 0.253 µM): 0.571 | relative viability (NCI-H661; first compound 0.8 µM): 0.461 | relative viability (NCI-H661; first compound 2.53 µM): 0.491 | relative viability (NCI-H661; first compound 8 µM): 0.457 | relative viability (NCI-H520; first compound 0.08 µM): 1.1 | relative viability (NCI-H520; first compound 0.253 µM): 1.28 | relative viability (NCI-H520; first compound 0.8 µM): 0.904 | relative viability (NCI-H520; first compound 2.53 µM): 0.906 | relative viability (NCI-H520; first compound 8 µM): 0.825 | relative viability (NCI-H1563; first compound 0.08 µM): 1.24 | relative viability (NCI-H1563; first compound 0.253 µM): 1.23 | relative viability (NCI-H1563; first compound 0.8 µM): 1.14 | relative viability (NCI-H1563; first compound 2.53 µM): 1.28 | relative viability (NCI-H1563; first compound 8 µM): 1.18 | relative viability (NCI-H322M; first compound 0.08 µM): 0.887 | relative viability (NCI-H322M; first compound 0.253 µM): 1.05 | relative viability (NCI-H322M; first compound 0.8 µM): 0.999 | relative viability (NCI-H322M; first compound 2.53 µM): 0.816 | relative viability (NCI-H322M; first compound 8 µM): 1.08 | relative viability (NCI-H2347; first compound 0.08 µM): 1.01 | relative viability (NCI-H2347; first compound 0.253 µM): 0.959 | relative viability (NCI-H2347; first compound 0.8 µM): 0.598 | relative viability (NCI-H2347; first compound 2.53 µM): 0.88 | relative viability (NCI-H2347; first compound 8 µM): 1.07
